From patent US20170037111A1, “Novel peptides and combination of peptides for use in immunotherapy against ovarian cancer and other cancers” (immatics biotechnologies GmbH, priority 2015, published 2017)

Key:
CD8+ T cells = assay: In vitro T-cell priming (immunogenicity) with aAPCs loaded with peptide/MHC and anti-CD28, pMHC multimer readout; assay type: cell-based, human; conditions: for Wells positive [%]: in vitro immunogenicity, HLA-A*02 restricted peptides, positive wells among evaluable; for donors / wells: in vitro immunogenicity of HLA class I peptides; for donors: percentage of positive donors; for wells: percentage of positive wells
Text: In order to obtain information regarding the immunogenicity of the TUMAPs of the present invention, the inventors performed investigations using an in vitro T-cell priming assay based on repeated stimulations of CD8+ T cells with artificial antigen presenting cells (aAPCs) loaded with peptide/MHC complexes and anti-CD28 antibody.
In order to perform in vitro stimulations by artificial antigen presenting cells loaded with peptide-MHC complex (pMHC) and anti-CD28 antibody, the inventors first isolated CD8+ T cells from fresh HLA-A*02 leukapheresis products via positive selection using CD8 microbeads (Miltenyi Biotec, Bergisch-Gladbach, Germany) of healthy donors obtained from the University clinics Mannheim, Germany, after informed consent.
PBMCs and isolated CD8+ lymphocytes were incubated in T-cell medium (TCM) until use consisting of RPMI-Glutamax (Invitrogen, Karlsruhe, Germany) supplemented with 10% heat inactivated human AB serum (PAN-Biotech, Aidenbach, Germany), 100 U/ml Penicillin/100 μg/ml Streptomycin (Cambrex, Cologne, Germany), 1 mM sodium pyruvate (CC Pro, Oberdorla, Germany), 20 μg/ml Gentamycin (Cambrex). 2.5 ng/ml IL-7 (PromoCell, Heidelberg, Germany) and 10 U/ml IL-2 (Novartis Pharma, Nürnberg, Germany) were also added to the TCM at this step.
Generation of pMHC/anti-CD28 coated beads, T-cell stimulations and readout was performed in a highly defined in vitro system using four different pMHC molecules per stimulation condition and 8 different pMHC molecules per readout condition.
The purified co-stimulatory mouse IgG2a anti human CD28 Ab 9.3 (Jung et al., 1987) was chemically biotinylated using Sulfo-N-hydroxysuccinimidobiotin as recommended by the manufacturer (Perbio, Bonn, Germany). Beads used were 5.6 μm diameter streptavidin coated polystyrene particles (Bangs Laboratories, Illinois, USA).
pMHC used for positive and negative control stimulations were A*0201/MLA-001 (peptide […] (SEQ ID NO. 664) from modified Melan-A/MART-1) and A*0201/DDX5-001 ([…] from DDX5, SEQ ID NO. 665), respectively.
800.000 beads/200 μl were coated in 96-well plates in the presence of 4×12.5 ng different biotin-pMHC, washed and 600 ng biotin anti-CD28 were added subsequently in a volume of 200 μl. Stimulations were initiated in 96-well plates by co-incubating 1×10^6 CD8+ T cells with 2×10^5 washed coated beads in 200 μl TCM supplemented with 5 ng/ml IL-12 (PromoCell) for 3 days at 37° C. Half of the medium was then exchanged by fresh TCM supplemented with 80 U/ml IL-2 and incubating was continued for 4 days at 37° C. This stimulation cycle was performed for a total of three times. For the pMHC multimer readout using 8 different pMHC molecules per condition, a two-dimensional combinatorial coding approach was used as previously described (Andersen et al., 2012) with minor modifications encompassing coupling to 5 different fluorochromes. Finally, multimeric analyses were performed by staining the cells with Live/dead near IR dye (Invitrogen, Karlsruhe, Germany), CD8-FITC antibody clone SK1 (BD, Heidelberg, Germany) and fluorescent pMHC multimers. For analysis, a BD LSRII SORP cytometer equipped with appropriate lasers and filters was used. Peptide specific cells were calculated as percentage of total CD8+ cells. Evaluation of multimeric analysis was done using the FlowJo software (Tree Star, Oregon, USA). In vitro priming of specific multimer+CD8+ lymphocytes was detected by comparing to negative control stimulations.
Exemplary flow cytometry results after TUMAP-specific multimer staining for two peptides of the invention are shown in FIG. 3 together with corresponding negative controls.

HLA-A*02:01 = HLA-A*02:01 (Homo sapiens, UniProt P04439, D140Y/D185E/D98H/E176V/E277Q/G131W/G231S/I119V/I121R/I166T/I218V/L300P/L318F/N151K/N90K/P208A/P217A/Q86G/Q94H/R138H/R169H/T345S); assay: MHC binding assay (UV-ligand exchange, β2m ELISA, peptide exchange yield); conditions: MHC class I binding score; binding to HLA-A*02:01 ranged by peptide exchange yield (UV-ligand exchange, β2m ELISA)
Procedure, shortened: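 Binding is expressed as peptide exchange yield: stabilized MHC complexes were quantified by β2m ELISA, with a 450 nm TMB read-out on streptavidin-coated plates. Complexes came from UV-ligand exchange, where UV irradiation cleaves a photolabile peptide so the candidate peptide can load.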

Peptide exchange (HLA-A*02:01)	Substance	Wells positive [%] (CD8+ T cells)	donors (CD8+ T cells)	wells (CD8+ T cells)
″+++″ (≧50% = +++)	384 (ILFANPNIFV; listed as Homo sapiens) [compound 384]	″+″ (<20% = +)		
″+++″ (≧50% = +++)	489 (KMWEELPEVV; listed as Homo sapiens) [compound 489]	″+″ (<20% = +)		
″+++″ (≧50% = +++)	247 (VLLPNDLLEKV; listed as Homo sapiens) [compound 247]	″+″ (<20% = +)		
″++++″ (≧75% = ++++)	60 (SLTIDGIYYV; listed as Homo sapiens) [compound 60]	″++++″ (> = 70% = ++++)		
″+++″ (≧50% = +++)	49 (YLPAVFEEV; listed as Homo sapiens) [compound 49]	″++″ (20%-49% = ++)		
″++″ (≧20% = ++)	242 (AIAYILQGV; listed as Homo sapiens) [compound 242]	″+++″ (50%-69% = +++)		
″+++″ (≧50% = +++)	38 (FLLEDDIHVS; listed as Homo sapiens) [compound 38]	″+″ (<20% = +)		
″+++″ (≧50% = +++)	5 (HLTEVYPEL; listed as Homo sapiens) [compound 5]	″+++″ (50%-69% = +++)		
″+++″ (≧50% = +++)	518 (KLNAEVACV; listed as Homo sapiens) [compound 518]	″++″ (20%-49% = ++)		
″++++″ (≧75% = ++++)	3 (SLASKLTTL; listed as Homo sapiens) [compound 3]	″+″ (<20% = +)		
″++++″ (≧75% = ++++)	143 (LLLDITPEI; listed as Homo sapiens) [compound 143]	″+″ (<20% = +)		
″+++″ (≧50% = +++)	150 (RLWEEGEELEL; listed as Homo sapiens) [compound 150]	″+″ (<20% = +)		
	648 (LLWGNAIFL; listed as Homo sapiens) [compound 648]		+++ (50%-69% = +++)	
	652 (TLWYRAPEV; listed as Homo sapiens) [compound 652]		++++ (> = 70% = ++++)	+++ (50%-69% = +++)
″+++″ (≧50% = +++)	17 (GLLPGDRLVSV; listed as Homo sapiens) [compound 17]	″++″ (20%-49% = ++)		
″++″ (≧20% = ++)	499 (KIFDIDEAEEGV; listed as Homo sapiens) [compound 499]	″+″ (<20% = +)		
″+++″ (≧50% = +++)	446 (QLIPALAKV; listed as Homo sapiens) [compound 446]	″++″ (20%-49% = ++)		
″++++″ (≧75% = ++++)	460 (AMLEKNYKL; listed as Homo sapiens) [compound 460]	″+″ (<20% = +)		
″+++″ (≧50% = +++)	283 (ALYIGDGYVIHLA; listed as Homo sapiens) [compound 283]		+++ (50%-69% = +++)	+ (<20% = +)
″++″ (≧20% = ++)	319 (SLEPQIQPV; listed as Homo sapiens) [compound 319]	″+″ (<20% = +)		
″++″ (≧20% = ++)	141 (YLDFSNNRL; listed as Homo sapiens) [compound 141]	″+″ (<20% = +)		
″++++″ (≧75% = ++++)	7 (SLVGLLLYL; listed as Homo sapiens) [compound 7]	″++″ (20%-49% = ++)		

Peptide exchange (HLA-A*02:01)	Substance	Wells positive [%] (CD8+ T cells)	donors (CD8+ T cells)	wells (CD8+ T cells)
″+++″ (≧50% = +++)	152 (ILFEDIFDV; listed as Homo sapiens) [compound 152]	″++″ (20%-49% = ++)		
″+++″ (≧50% = +++)	79 (SLFIGEKAVLL; listed as Homo sapiens) [compound 79]	″+″ (<20% = +)		
	663 (KIQEMQHFL; listed as Homo sapiens) [compound 663]		+++ (50%-69% = +++)	+ (<20% = +)
″++++″ (≧75% = ++++)	19 (FMVDNEAIYDI; listed as Homo sapiens) [compound 19]	″++″ (20%-49% = ++)		
″+++″ (≧50% = +++)	463 (SLVESHLSDQLTL; listed as Homo sapiens) [compound 463]	″++″ (20%-49% = ++)		
″++++″ (≧75% = ++++)	8 (FTLGNVVGMYL; listed as Homo sapiens) [compound 8]	″+″ (<20% = +)		
″++″ (≧20% = ++)	157 (SLNDEVPEV; listed as Homo sapiens) [compound 157]	″+++″ (50%-69% = +++)		
″+++″ (≧50% = +++)	48 (ALAELYEDEV; listed as Homo sapiens) [compound 48]	″+″ (<20% = +)		
″+++″ (≧50% = +++)	443 (GLWEIENNPTV; listed as Homo sapiens) [compound 443]	″+″ (<20% = +)		
″++″ (≧20% = ++)	511 (FLDPYCSASV; listed as Homo sapiens) [compound 511]	″+″ (<20% = +)		
″+++″ (≧50% = +++)	198 (KTINKVPTV; listed as Homo sapiens) [compound 198]	″++″ (20%-49% = ++)		
″++++″ (≧75% = ++++)	395 (ALALGGIAVV; listed as Homo sapiens) [compound 395]	″+++″ (50%-69% = +++)		
″+++″ (≧50% = +++)	40 (TLLVKVFSV; listed as Homo sapiens) [compound 40]	″++″ (20%-49% = ++)		
″++″ (≧20% = ++)	191 (LLQEGQALEYV; listed as Homo sapiens) [compound 191]	″+++″ (50%-69% = +++)		
	659 (ILFPDIIARA; listed as Homo sapiens) [compound 659]		+++ (50%-69% = +++)	+ (<20% = +)
	662 (KIQEILTQV; listed as Homo sapiens) [compound 662]		+++ (50%-69% = +++)	+ (<20% = +)
″+++″ (≧50% = +++)	201 (RLVDYLEGI; listed as Homo sapiens) [compound 201]			
″+++″ (≧50% = +++)	236 (GLLEAKVSL; listed as Homo sapiens) [compound 236]			
″+++″ (≧50% = +++)	541 (SMLEPVPEL; listed as Homo sapiens) [compound 541]			
″++″ (≧20% = ++)	94 (YLIDIKTIAI; listed as Homo sapiens) [compound 94]			
″+++″ (≧50% = +++)	496 (FLVEKQPPQV; listed as Homo sapiens) [compound 496]			
″++″ (≧20% = ++)	172 (VLYSYTIITV; listed as Homo sapiens) [compound 172]			
